Measured values: patent US20130085133A1, “ANTI-VIRAL TREATMENT AND ASSAY TO SCREENFOR ANTI-VIRAL AGENT” (Sourthern Research Institute Office of Commercialization …, priority 2010, published 2013)
pEC50: −log10 of the molar value. Where two headings read alike, the source gives them in different places.

Key:
[1] = tested on: HEp-2 cells; experiment: cytotoxicity assay (percent viability of HEp-2 cells, Cell Titer-Glo); conditions: cell viability of HEp-2 cells (text: IC50), top concentration 25 ug/mL (Chembridge), 50 uM (Enamine, SRI Proprietary)
Protocol: (§1) Test compounds were evaluated by measuring their antiviral activity, cell toxicity, and selectivity. Test compounds were serially diluted in a plate to plate matrix or “stacked plate” matrix. All 320 compounds in a source plate were diluted together resulting in a 10 point dose response dilution series. It was visualized as a serial dilution series proceeding vertically through a stack of plates with the high dose plate on top and the low dose plate on the bottom.
(§2) Following the six day incubation period, the assay plates were equilibrated to room temperature for 30 min and an equal volume (30 μL) of Cell Titer-Glo reagent (Promega Inc.) was added to each well using a WellMate (Matrix, Hudson, N.H.) and plates were incubated for an additional 10 min at room temperature. At the end of the incubation, luminescence was measured using a Perkin Elmer Envision™ multi-label reader (PerkinElmer, Wellesley, Mass.) with an integration time of 0.1 s.
(§3) Data was analyzed using ActivityBase software (IDBS, Inc, Guilford, UK). thirty two control wells containing cells only and twenty four wells containing cells and virus were included on each assay plate and used to calculate Z′ value for each plate and to normalize the data on a per plate basis. […] Eight ribavirin positive control wells were included on each plate for quality control purposes, but were not used in Z′ calculations. […] In the toxicity assay, results are described as percent viability and the calculation is the same.
(§4) An EC50 (for CPE inhibition) and IC50 (for cell viability) were calculated for each substance using the 4 parameter Levenburg-Marquardt algorithm with parameter A locked at 0 and parameter B locked at 100. Standard deviation, normalized chi2 and hill slope were used to evaluate the curves. Values were not extrapolated beyond the tested range of concentrations.

[2] = tested on: respiratory syncytial virus (RSV) strain Long; conditions: EC50 for CPE inhibition, HEp-2 cells, six days, tested range 25 ug/mL to 0.048 ug/mL (Chembridge), 50 uM to 0.097 uM (Enamine, SRI Proprietary); for EC50: unit not given; for pEC50: unit inferred
[3] = tested on: respiratory syncytial virus (RSV) strain Long; experiment: microbe, parasite or virus in culture; conditions: human respiratory syncytial virus, HEp-2, 144 h
[4] = in vitro; conditions: human
Protocol: as §1, §2, §3, §4

[5] = tested on: RSV, Long strain; experiment: virus titer Reduction (VTR) assay, progeny virus TCID50 in HEp-2 cells; format: cell-based, respiratory syncytial virus (RSV); conditions: for TCID-50 Reduction @ 3 ug/ml / log reduction at 3 µg/mL: 3 ug/ml compound; for TCID-50 Reduction @ 3 ug/ml / TCID-50 Reduction 6 @ ug/ml / TCID-50 Reduction 12 @ ug/ml / TCID-50 Reduction 25 @ ug/ml: log reduction in progeny virus titer; for TCID-50 Reduction 6 @ ug/ml / log reduction at 6 µg/mL: 6 ug/ml compound; for TCID-50 Reduction 12 @ ug/ml / log reduction at 12 µg/mL: 12 ug/ml compound; for TCID-50 Reduction 25 @ ug/ml / log reduction at 25 µg/mL: 25 ug/ml compound; for log reduction at 3 µg/mL / log reduction at 6 µg/mL / log reduction at 12 µg/mL / log reduction at 25 µg/mL: human respiratory syncytial virus, 48 h; for log reduction at 3 µg/mL: read-out: TCID-50 Reduction @ 3 ug/ml; for log reduction at 6 µg/mL: read-out: TCID-50 Reduction 6 @ ug/ml; for log reduction at 12 µg/mL: read-out: TCID-50 Reduction 12 @ ug/ml; for log reduction at 25 µg/mL: read-out: TCID-50 Reduction 25 @ ug/ml
Protocol: Four concentrations of each compound were evaluated (Table 3). Briefly, the four concentrations of test compounds, HEp-2 cells (8×10^3 per well) and RSV, Long strain (MOI=0.9) were plated in 96 well microtiter plates. The plates were incubated for 48 hours. Fifteen (15) μl of 10-fold serial dilution of progeny virus containing medium from respective samples (test compound treated or untreated) was transferred to infect fresh HEp-2 cells (2×10^3 cells per well) in a 384 well format. Plates were incubated for an additional 6 days and luminescence was measured using Cell Titer-Glo reagent (Promega Inc.) to determine cell viability. […] A well showing lesser than 50% cell viability was regarded as positive for virus infection. Four replicates for each virus dilution were analyzed and the number of virus positive wells (out of 4) was plotted versus the dilution. TCID50 was calculated to be the dilution that produced two positive wells out of four using ActivityBase software (IDBS, Inc, Guilford, UK).

[6] = cytotoxicity assay (percent viability of HEp-2 cells, Cell Titer-Glo); conditions: human, HEp-2 cells
Protocol: as §1, §2, §3, §4

Compound	CC50 ([1]; unit not given)	EC50 [2]	EC50 [3] [µg/mL]	pEC50 [3]	also measured
COc1ccc(-c2cn3cccnc3n2)cc1F [AB00292655]	>25.00	10.88	–	–	–
CC1CCc2[nH]c3ccc(C(=O)OCC(=O)C(C)(C)C)cc3c2C1 (stereo not drawn) [AB00796257]	–	–	–	–	CC50 ([1]; unit inferred): > 50 µM; pEC50 [2]: 4.60
C=CCn1c(SCc2ccc(OC)c([N+](=O)[O-])c2)nnc1-c1cccc(Br)c1 [AB00294809]	>25.00	20.29	–	–	–
N#CCCCSc1nnnn1-c1cccc(Cl)c1 [AB00287736]	>25.00	16.16	–	–	–
Brc1cc2nc[nH]c2c2ccccc12 [AB00358081]	>25.00	12.07	–	–	–
COc1ccc2[nH]c(C(C#N)=Cc3cc4c(cc3Cl)OCO4)nc2c1 [AB00364575]	>25.00	17.76	–	–	–
COc1c2ccoc2nc2c(OC)cccc12 [AB00276394]	–	–	15.2	–	CC50 [4]: > 25 µg/mL
N#CCCN1CCN(C(=S)c2ccc(-c3cccc(Cl)c3)o2)CC1 [AB00294368]	–	–	15	–	CC50 [4]: > 25 µg/mL
O=Cc1cn(CC(=O)N2CCc3ccccc3C2)c2ccc(Br)cc12 [AB00302396]	–	–	23.8	–	CC50 [4]: > 25 µg/mL
CCN(CC)C(=O)C1CCCc2c1[nH]c1ccc(Cl)cc21 (stereo not drawn) [AB00279132]	>25.00	1.92	–	–	TCID-50 Reduction @ 3 ug/ml [5]: 1.00; TCID-50 Reduction 6 @ ug/ml [5]: 3.63; TCID-50 Reduction 12 @ ug/ml [5]: 4.22; TCID-50 Reduction 25 @ ug/ml [5]: 3.83
Cc1ccc2[nH]c(-c3sc4nc(C)ccc4c3N)nc2c1 [AB00372475]	>25.00	21.04	–	–	–
O=C(Nc1ccc(OC(F)(F)F)cc1)c1ccc2[nH]cnc2c1 [AB00368222]	>25.00	12.26	–	–	–
C=CCN1C(=O)C2(C(C#N)=C(N)Oc3ccccc32)C(C(C)=O)=C1C (stereo not drawn) [AB00364858]	–	–	21.2	–	CC50 at 6 days [4]: > 25 µg/mL
COc1cc(N2CCCC2)c(OC)cc1C=C(C#N)c1nc2ccccc2[nH]1 [AB00321587]	>25.00	9.15	–	–	–
Cc1ccc(-c2nc3ccccc3[nH]2)cc1NC(=O)c1ccc2c(c1)OCO2 [AB00348716]	>25.00	17.26	–	–	–
CC(N)=C(C#N)C(=O)CN1C(=O)NC(Cc2c[nH]c3ccccc23)C1=O (stereo not drawn) [AB00722846]	–	–	–	–	CC50 ([1]; unit inferred): > 50 µM; pEC50 [2]: 5.76
O=C(Nc1ccc2[nH]c(-c3ccccc3)nc2c1)c1ccccc1 [AB00308659]	>25.00	8.66	–	–	TCID-50 Reduction @ 3 ug/ml [5]: 2.82; TCID-50 Reduction 6 @ ug/ml [5]: 3.64; TCID-50 Reduction 12 @ ug/ml [5]: 6.43; TCID-50 Reduction 25 @ ug/ml [5]: 6.40
COc1cc(OC)c(OC)cc1C=Nn1c(S)nnc1-c1ccc(C(C)(C)C)cc1 [AB00291789]	>25.00	10.96	–	–	–
COc1ccccc1/C=N/NC(=N)N[N+](=O)[O-] [SRI-101]	–	–	–	4.45	CC50 [4]: > 50 µM
Fc1ccc(-c2cc(C(F)(F)F)n[nH]2)cc1 [AB00294826]	>25.00	16.73	–	–	–
CCOC(=O)c1ccc(-n2c(C)cc(C=C(C#N)c3nc4ccccc4[nH]3)c2C)cc1 [AB00709376]	–	–	–	–	CC50 ([1]; unit inferred): > 50 µM; pEC50 [2]: 4.97

Compound	CC50 ([1]; unit not given)	EC50 [2]	EC50 [3] [µg/mL]	pEC50 [3]	also measured
Cc1ccc2[nH]c3c(c2c1)CN(C)CC3 [AB00275559]	>25.00	6.29	–	–	TCID-50 Reduction @ 3 ug/ml [5]: 1.00; TCID-50 Reduction 6 @ ug/ml [5]: 1.93; TCID-50 Reduction 12 @ ug/ml [5]: 2.21; TCID-50 Reduction 25 @ ug/ml [5]: 1.93
CC(=O)c1ccc(NC(=O)C(Cc2c[nH]c3ccccc23)NC(=O)c2cccs2)cc1 (stereo not drawn) [AB00776619]	–	–	–	–	CC50 ([1]; unit inferred): > 50 µM; pEC50 [2]: 4.56
CCC(Sc1nnc2c3ccccc3n(CCc3ccccc3)c2n1)C(=O)Nc1ccc(S(N)(=O)=O)cc1 (stereo not drawn) [AB00287440]	>25.00	17.84	–	–	–
O=C(O)CCNc1nc(Cc2ccccc2)nc2sc3c(c12)CCCC3 [AB00308859]	>25.00	20.48	–	–	–
O=S(=O)(O)c1ccc2c(c1)C1=NC/2=N\c2c3cc(S(=O)(=O)O)ccc3c3[n]2[Cu][n]2/c(c4ccc(S(=O)(=O)O)cc4/c2=N/C2=NC(=N\3)/c3cc(S(=O)(=O)O)ccc32)=N\1 [AB00514356]	–	–	–	–	CC50 [4]: > 50 µM
Cc1sc(NC(=O)Cc2ccccc2)c(C(=O)O)c1C [AB00877398]	–	–	–	–	CC50 ([1]; unit inferred): > 50 µM; pEC50 [2]: 4.40
CCCOc1ccc(-c2n[nH]c(SCc3ccc(C(=O)OC)o3)n2)cc1 [AB00356597]	>25.00	11.59	–	–	–
S=C(c1c[nH]c2ccc(Br)cc12)N1CCOCC1 [AB00303357]	>25.00	21.92	–	–	–
Cc1[nH]c2ccccc2c1-c1csc(-c2ccncc2)n1 [AB00291074]	>25.00	20.59	–	–	–
CC(=O)Nc1ccc(NC(=O)c2ccc3[nH]c4c(c3c2)CC(C)CC4)cc1 (stereo not drawn) [AB00804772]	–	–	–	–	CC50 ([1]; unit inferred): > 50 µM; pEC50 [2]: 4.36
O=c1c(F)cn(Cc2ccc([N+](=O)[O-])cc2)c(=O)n1Cc1ccc([N+](=O)[O-])cc1 [AB00373945]	–	–	–	4.88	CC50 [4]: > 50 µM
CC(=O)Nc1ccc(Nc2ncnc3sc4c(c23)CCCC4)cc1 [AB00296051]	>25.00	16.70	–	–	–
Nc1ccc2c(c1)Cc1ccccc1-2 [AB00374695]	–	–	–	4.33	CC50 [4]: > 50 µM
O=S(=O)(c1cc(Cl)c(O)c(Cl)c1)c1cc(Cl)c(O)c(Cl)c1 [AB00275543]	–	–	16.2	–	CC50 at 6 days [4]: > 25 µg/mL
COc1ccc(C(=O)Nc2ccc3c(c2)OCCO3)c(OC)c1 [AB00296320]	–	–	8.34	–	CC50 at 6 days [6]: > 25 µg/mL; log reduction at 3 µg/mL [5]: 1.55; log reduction at 6 µg/mL [5]: 1.38; log reduction at 12 µg/mL [5]: 2.9; log reduction at 25 µg/mL [5]: 4.66
CC1=Nc2ccc(C)c3nc(C)cc(c23)N1c1ccc(C)cc1 [AB00280244]	–	–	8.62	–	CC50 at 6 days [6]: > 25 µg/mL; log reduction at 3 µg/mL [5]: 1.55; log reduction at 6 µg/mL [5]: 1.36; log reduction at 12 µg/mL [5]: 1.55; log reduction at 25 µg/mL [5]: 2.89
O=C(CCSc1ccccc1)Nc1ccccc1C(=O)O [AB00289457]	–	–	2.97	–	CC50 at 6 days [6]: > 25 µg/mL; log reduction at 3 µg/mL [5]: 1; log reduction at 6 µg/mL [5]: 4.9; log reduction at 12 µg/mL [5]: 6.73; log reduction at 25 µg/mL [5]: 6.57
Cc1cccc(-n2c(Cc3cccc([N+](=O)[O-])c3)nc3ccccc3c2=O)c1 [AB00297463]	–	–	16.3	–	CC50 at 6 days [4]: > 25 µg/mL
Cc1ccc(-c2csc(N)c2C(N)=O)cc1C [AB00310739]	–	–	6.31	–	CC50 at 6 days [6]: > 25 µg/mL; log reduction at 3 µg/mL [5]: 1.03; log reduction at 6 µg/mL [5]: 1.86; log reduction at 12 µg/mL [5]: 1.9; log reduction at 25 µg/mL [5]: 2.39
Cc1cc(C=C(C#N)c2nc3ccccc3[nH]2)c(C)n1-c1ccccn1 [AB00342188]	>25.00	13.11	–	–	–
CNC(=S)NNC(=O)COc1ccccc1C [AB00370002]	–	–	22	–	CC50 [4]: > 25 µg/mL
